Measured values from patent publication US12012410B2, “Substituted pyrazolo[1,5-a]pyrazines for spinal muscular atrophy” (REBORNA BIOSCIENCES, INC., priority 2018, dated 2024).

System: FL-SMN mRNA (SMN transcript containing exons 7 and 8)
Experiment: Live-cell assay to measure changes in FL-SMN mRNA levels (qPCR) after exposure to the compounds
Assay type: cell-based, human
Details: fibroblasts derived from patients SMA (GM03813); 24 hours incubation
In short: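 SMA patient fibroblasts (GM03813) in DMEM/10% FBS were treated with compound (0.1% DMSO final) for 24 h. FL-SMN and Δ7 mRNA were measured by RT-qPCR against oligo DNA standard curves and normalised to GAPDH. Values are % of the DMSO control, binned by asterisk from ≥100% to ≥180%.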

| SMILES | Percentage of increase (FL-SMN mRNA standardized against GAPDH, DMSO control set as 100%) |
| --- | --- |
| CCc1nc(C)cn2nc(-c3nc4ccc(N5CCN(C)CC5)cc4c(=O)[nH]3)cc12 [Example 5, 2-(4-Ethyl-6-methylpyrazolo[1,5-α]pyrazin-2-yl)-6-(4-methylpiperazin-1-yl)quinazolin-4(3H)-one] | *** (equal to or higher than 150% but lower than 180%) |
| CN1CCC(c2nc3ccc(-c4ccc5nccn5c4)cc3c(=O)[nH]2)CC1 [Example 65, 6-(imidazo[1,2-a]pyridin-6-yl)-2-(1-methylpiperidin-4-yl)quinazolin-4(3H)-one] | ** (equal to or higher than 120% but lower than 150%) |
| Cc1cn2c(C)c(-c3ccc4nc(C5CCN(C)CC5)[nH]c(=O)c4c3)ccc2n1 [Example 61, 6-(2,5-dimethylimidazo[1,2-a]pyridin-6-yl)-2-(1-methylpiperidin-4-yl)quinazolin-4(3H)-one] | * (equal to or higher than 100% but lower than 120%) |
| Cc1cn2nc(-c3nc4ccc(N5CCN6CCC[C@H]6C5)cc4c(=O)[nH]3)cc2c(C)n1 [Example 121, (S)-2-(4,6-dimethylpyrazolo[1,5-a]pyrazin-2-yl)-6-(hexahydropyrrolo[1,2-a]pyrazin-2(1H)-yl)quinazolin-4(3H)-one bistrifluoroacetate] | **** (equal to or higher than 180%) |
| Cc1cn2nc(-c3nc4ccc(N5CCN(C6CC6)CC5)cc4c(=O)[nH]3)cc2c(C)n1 [Example 36, 6-(4-cyclopropylpiperazin-1-yl)-2-(4,6-dimethylpyrazolo[1,5-a]pyrazin-2-yl)quinazolin-4(3H)-one] | **** (equal to or higher than 180%) |
| Cc1cn2cc(-c3ccc4nc(C5(F)CCN(C6CC6)CC5)[nH]c(=O)c4n3)cc(F)c2n1 [Example 102, 2-(1-cyclopropyl-4-fluoropiperidin-4-yl)-6-(8-fluoro-2-methylimidazo[1,2-a]pyridin-6-yl)pyrido[3,2-d]pyrimidin-4(3H)-one] | ** (equal to or higher than 120% but lower than 150%) |
| Cc1nc2ccc(-c3ccc4nc(C5CCN(C)CC5)[nH]c(=O)c4c3)cn2c1C [Example 67, 6-(2,3-dimethylimidazo[1,2-a]pyridin-6-yl)-2-(1-methylpiperidin-4-yl)quinazolin-4(3H)-one] | ** (equal to or higher than 120% but lower than 150%) |
| Cc1nc2c(F)cc(-c3cc4c(=O)[nH]c(C5(F)CCN(C6CC6)CC5)nc4cn3)cc2o1 [Example 107, 2-(1-cyclopropyl-4-fluoropiperidin-4-yl)-6-(4-fluoro-2-methyl-1,3-benzoxazol-6-yl)pyrido[3,4-d]pyrimidin-4(3H)-one] | ** (equal to or higher than 120% but lower than 150%) |
| Cc1cn2cc(-c3ccc4nc(C5CCN(C)CC5)[nH]c(=O)c4c3)cc2cn1 [Example 15, 2-(1-Methylpiperidin-4-yl)-6-(3-methylpyrrolo[1,2-α]pyrazin-7-yl)quinazolin-4(3H)-one] | **** (equal to or higher than 180%) |
| Cc1cn2nc(-c3nc4ccc(N5CCN(C)CC5=O)cc4c(=O)[nH]3)cc2c(C)n1 [Example 78, 2-(4,6-dimethylpyrazolo[1,5-a]pyrazin-2-yl)-6-(4-methyl-2-oxopiperazin-1-yl)quinazolin-4(3H)-one] | * (equal to or higher than 100% but lower than 120%) |
| Cc1cn2nc(-c3nc4c(C)cc(N5CCN(C)CC5)cc4c(=O)[nH]3)cc2c(C)n1 [Example 21, 2-(4,6-Dimethylpyrazolo[1,5-α]pyrazin-2-yl)-8-methyl-6-(4-methylpiperazin-1-yl)quinazolin-4(3H)-one] | **** (equal to or higher than 180%) |
| Cc1nc2c(F)cc(-c3cc(F)c4nc(C5CCN(C)CC5)[nH]c(=O)c4c3)cc2o1 [Example 24, 8-Fluoro-6-(4-fluoro-2-methyl-1,3-benzoxazole 6-yl)-2-(1-methylpiperidin-4-yl) quinazoline 4-(3H)-one] | **** (equal to or higher than 180%) |
| Cc1cn2nc(-c3nc4ccc(N5CCNC(C)(C)C5)cc4c(=O)[nH]3)cc2c(C)n1 [Example 122, 6-(3,3-Dimethylpiperazin-1-yl)-2-(4,6-dimethylpyrazolo[1,5-a]pyrazin-2-yl)quinazolin-4(3H)-one bistrifluoroacetate] | **** (equal to or higher than 180%) |
| Cc1cn2nc(-c3nc4cc(F)c(N5CCN(C)CC5)cc4c(=O)[nH]3)cc2c(C)n1 [Example 7, 2-(4,6-Dimethylpyrazolo[1,5-α]pyrazin-2-yl)-7-fluoro-6-(4-methylpiperazin-1-yl)quinazolin-4(3H)-one] | *** (equal to or higher than 150% but lower than 180%) |
| COc1cccc(-c2nc3ccc(C4CCN(C)CC4)cc3c(=O)[nH]2)c1F [Example 47, 2-(2-fluoro-3-methoxyphenyl)-6-(1-methylpiperidin-4-yl)quinazolin-4(3H)-one] | * (equal to or higher than 100% but lower than 120%) |
| Cc1cn2cc(-c3ccc4nc(C5CCN(C)CC5)[nH]c(=O)c4c3C)ccc2n1 [Example 60, 5-methyl-6-(2-methylimidazo[1,2-a]pyridin-6-yl)-2-(1-methylpiperidin-4-yl)quinazolin-4(3H)-one] | ** (equal to or higher than 120% but lower than 150%) |
| Cc1cn2cc(-c3cc(F)c4nc(C5(F)CCN(C)CC5)[nH]c(=O)c4c3)ccc2n1 [Example 94, 8-fluoro-2-(4-fluoro-1-methylpiperidin-4-yl)-6-(2-methylimidazo[1,2-a]pyridin-6-yl)quinazolin-4(3H)-one] | *** (equal to or higher than 150% but lower than 180%) |
| COc1ccc(-c2cc(F)c3nc(C4CCN(C5CC5)CC4)[nH]c(=O)c3c2)cc1F [Example 35, 2-(1-cyclopropylpiperidin-4-yl)-8-fluoro-6-(3-fluoro-4-methoxyphenyl) quinazolin-4(3H)-one] | **** (equal to or higher than 180%) |
| Cc1cn2cc(-c3ccc4nc(C5CCN(C)CC5)[nH]c(=O)c4c3)cc(C(F)(F)F)c2n1 [Example 75, 2-(1-methylpiperidin-4-yl)-6-[2-methyl-8-(trifluoromethyl)imidazo [1,2-a]pyridin-6-yl]quinazolin-4(3H)-one] | ** (equal to or higher than 120% but lower than 150%) |
| Cc1nc2c(F)cc(-c3ccc4c(=O)n(C5CCN(C6CC6)CC5)cnc4c3)cc2o1 [Example 34, 3-(1-cyclopropylpiperidin-4-yl)-7-(4-fluoro-2-methyl-1,3-benzoxazol-6-yl)quinazolin-4(3H)-one] | **** (equal to or higher than 180%) |
| CN1CCC(c2ccc3nc(-c4cc5n(n4)CCOC5)[nH]c(=O)c3c2)CC1 [Example 46, 2-(6,7-dihyrdo-4H-pyrazolo[5,1-c][1,4]oxazin-2-yl)-6-(1-methylpiperidin-4-yl)quinazolin-4(3H)-one] | * (equal to or higher than 100% but lower than 120%) |
